Consider 24 molecules from US20240246946A1, “MODULATORS OF TREX1” (Constellation Pharmaceuticals, Inc., priority 2021, published 2024).

The target in one experiment is T1, full length human TREX1 (Homo sapiens, UniProt Q9NSU2).
T1 construct: N-terminally His-Tev tagged full length human TREX1; made in house; host or cells: E. coli
T1 sequence (Q9NSU2 1-314): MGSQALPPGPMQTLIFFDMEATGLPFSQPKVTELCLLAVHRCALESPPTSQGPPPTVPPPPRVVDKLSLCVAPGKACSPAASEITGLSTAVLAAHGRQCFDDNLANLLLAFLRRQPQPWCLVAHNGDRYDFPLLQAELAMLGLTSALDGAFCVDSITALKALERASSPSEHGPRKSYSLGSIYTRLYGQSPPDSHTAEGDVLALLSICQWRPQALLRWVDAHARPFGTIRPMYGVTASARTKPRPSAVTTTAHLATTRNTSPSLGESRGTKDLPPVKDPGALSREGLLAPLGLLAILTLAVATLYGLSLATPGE
Kind of experiment: hTREX1 Biochemical Assay (fluorescence, dsDNA substrate degradation). As to conditions: biochemical, read-out: hTREX1 IC50. The gist of the method: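 Fluorescence rises as enzyme degrades a quenched TEX615-labelled dsDNA substrate (60 nM) in 50 mM Tris, 150 mM NaCl, 5 mM MgCl2, pH 7.4. Full-length His-Tev-tagged human TREX1, 4 pM, sits with compound 4 hours at 25° C before substrate; reaction 18 hours, stopped with EDTA.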

The target in a further experiment is T2, full length mouse TREX1 (Mus musculus, UniProt Q91XB0).
T2 construct: N-terminally His-Tev tagged full length mouse TREX1; made in house; host or cells: E. coli
T2 sequence (Q91XB0 1-314): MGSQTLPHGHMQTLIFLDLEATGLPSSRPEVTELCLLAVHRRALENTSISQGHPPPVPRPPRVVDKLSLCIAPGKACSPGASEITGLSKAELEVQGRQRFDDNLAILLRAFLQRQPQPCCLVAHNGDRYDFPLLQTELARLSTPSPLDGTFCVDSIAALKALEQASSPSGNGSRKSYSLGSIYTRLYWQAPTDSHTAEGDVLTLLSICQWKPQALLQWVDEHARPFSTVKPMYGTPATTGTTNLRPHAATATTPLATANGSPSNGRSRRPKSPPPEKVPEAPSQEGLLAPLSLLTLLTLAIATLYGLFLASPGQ
Kind of experiment: mTREX1 Biochemical Assay (fluorescence, dsDNA substrate degradation). As to conditions: biochemical, read-out: mTREX1 IC50. Put shortly:
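Reaction run 18 h at 25° C. with 60 nM TEX615/quencher-labelled dsDNA and 6 pM mouse TREX1 in Tris buffer (pH 7.4, 5 mM MgCl2, 1.0% DMSO), enzyme having sat 4 h with compound across 10 concentrations. EDTA quench; substrate degradation measured as fluorescence increase.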

Experiment [1] addresses T3, human TREX2 (residues M44-A279) (Homo sapiens, UniProt Q9BQ50).
T3 construct: human TREX2 (residues M44-A279, expressed in E. coli); made in house; host or cells: E. coli
T3 sequence (Q9BQ50 44-279 isoform Q9BQ50-1): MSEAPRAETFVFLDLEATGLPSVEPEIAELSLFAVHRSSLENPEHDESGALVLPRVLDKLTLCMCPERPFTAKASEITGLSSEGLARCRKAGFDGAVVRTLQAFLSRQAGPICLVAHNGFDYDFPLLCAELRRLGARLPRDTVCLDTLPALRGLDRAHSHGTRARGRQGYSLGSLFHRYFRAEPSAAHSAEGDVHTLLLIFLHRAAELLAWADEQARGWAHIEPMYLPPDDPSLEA
In words: hTREX2 Biochemical Assay (fluorescence, dsDNA substrate degradation). To be noted: biochemical selectivity for hTREX1 vs hTREX2. The gist of the method: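 Fluorogenic dsDNA degradation read at 615 nm (570 nm excitation) after EDTA quench. Final 60 nM substrate, 50 pM His-Tev-tagged enzyme, 5 mM MgCl2, pH 7.4, 1.0% DMSO; 4 h compound–enzyme preincubation then 18 h reaction, both 25 °C; 10-point titration.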

On to `Cc1cnc(C(c2ccccc2C#N)C(C)c2nc(C(=O)Nc3cnoc3)c(O)c(=O)n2C)c(C)n1` (single isomer, unassigned) [Example 123 D1E2], for which the concentration for half-maximal inhibition (IC50) at full length human TREX1 and on full length mouse TREX1 was above 10 nM throughout. For the same molecule, in experiment [1], the “hTREX1 vs hTREX2 selectivity” value is “A (A = <25 fold selective for hTREX1)”.

As for `COCCn1nc(C)c(C(c2cc(F)ccc2C#N)C(C)c2nc(C(=O)Nc3cnoc3)c(O)c(=O)n2C)c1C` (single isomer, unassigned) [Example 110 D1E2], the IC50 on full length human TREX1 and at full length mouse TREX1 was above 10 nM in each case. The “hTREX1 vs hTREX2 selectivity” value in experiment [1] is “A (A = <25 fold selective for hTREX1)”.

As to `Cc1nccc(C(c2ccccc2C#N)C(C)c2nc(C(=O)Nc3cnoc3)c(O)c(=O)n2C)n1` (single isomer, unassigned) [Example 83 D2E2], the IC50 on full length human TREX1 and at full length mouse TREX1 was above 10 nM each time. Further, the “hTREX1 vs hTREX2 selectivity” value in experiment [1] is reported as “A (A = <25 fold selective for hTREX1)”.

For the molecule `CCn1ncc(C(c2ccc(F)cc2C#N)C(C)c2nc(C(=O)Nc3cnoc3)c(O)c(=O)n2C)c1C` (single isomer, unassigned) [Example 65 D2E1], the IC50 at full length human TREX1 is 1 to 10 nM; at full length mouse TREX1 it was above 10 nM. The “hTREX1 vs hTREX2 selectivity” value in experiment [1] was “C (C = >50 fold selective for hTREX1)”.

`CC(c1nc(C(=O)Nc2cnoc2)c(O)c(=O)n1C)C(c1cn[nH]c1)c1ccccc1C#N` (single isomer, unassigned) [Example 12 D1E2]: the IC50 on full length human TREX1 and on full length mouse TREX1 was above 10 nM each time. Besides, the “hTREX1 vs hTREX2 selectivity” value in experiment [1] is “B (B = 25 to 50-fold selective for hTREX1)”.

With `Cc1cnc(C(c2cc(F)ccc2Cl)C(C)c2nc(C(=O)Nc3cnoc3)c(O)c(=O)n2C)cn1` (single isomer, unassigned) [Example 117 D2E2], the IC50 on full length human TREX1 and on full length mouse TREX1 was above 10 nM throughout. Besides, in experiment [1], the “hTREX1 vs hTREX2 selectivity” value is recorded as “A (A = <25 fold selective for hTREX1)”.

Take `CC(c1nc(C(=O)Nc2cnoc2)c(O)c(=O)n1C)C(c1cnn(CCOC(F)(F)F)c1)c1cc(F)ccc1Cl` (single isomer, unassigned) [Example 98 D1E2]: the results for the IC50 on full length human TREX1 and at full length mouse TREX1 were above 10 nM and 1 to 10 nM, respectively. For the same molecule, the “hTREX1 vs hTREX2 selectivity” value in experiment [1] is given as “A (A = <25 fold selective for hTREX1)”.

As to `CC(c1nc(C(=O)Nc2cnoc2)c(O)c(=O)n1C)C(c1cnn(C)c1)c1cc(Cl)ccc1C#N` (single isomer, unassigned) [Example 26 D2E1], the IC50 at full length human TREX1 and on full length mouse TREX1 was above 10 nM in each case. The “hTREX1 vs hTREX2 selectivity” value in experiment [1] is reported as “B (B = 25 to 50-fold selective for hTREX1)”.

Regarding `COCCn1ncc(C(c2cc(F)ccc2C#N)C(C)c2nc(C(=O)Nc3cnoc3)c(O)c(=O)n2C)c1C` (single isomer, unassigned) [Example 104 D1E2], the IC50 on full length human TREX1 and on full length mouse TREX1 was above 10 nM in each case. Moreover, in experiment [1], the “hTREX1 vs hTREX2 selectivity” value is on record as “A (A = <25 fold selective for hTREX1)”.

On to `CC(c1nc(C(=O)Nc2cnoc2)c(O)c(=O)n1C)C(c1cn(C)cn1)c1ccccc1C#N` (single isomer, unassigned) [Example 39 D2E2], for which the 50% inhibitory concentration (IC50) is 1 to 10 nM at full length human TREX1 and above 10 nM at full length mouse TREX1. Besides, the “hTREX1 vs hTREX2 selectivity” value in experiment [1] is listed as “C (C = >50 fold selective for hTREX1)”.

In the case of `Cc1cc(C(c2cc(F)ccc2C#N)C(C)c2nc(C(=O)Nc3cnoc3)c(O)c(=O)n2C)nn1C` (single isomer, unassigned) [Example 112 D2E2], the half-inhibitory concentration (IC50) at full length human TREX1 and on full length mouse TREX1 was above 10 nM in each case. Moreover, the “hTREX1 vs hTREX2 selectivity” value in experiment [1] is “A (A = <25 fold selective for hTREX1)”.

Regarding `CC(c1nc(C(=O)Nc2cnoc2)c(O)c(=O)n1C)C(c1cnn(CC2COC2)c1)c1cc(F)ccc1Cl` (single isomer, unassigned) [Example 94 D1E2], the IC50 at full length human TREX1 and at full length mouse TREX1 was above 10 nM throughout. In addition, the “hTREX1 vs hTREX2 selectivity” value in experiment [1] is given as “A (A = <25 fold selective for hTREX1)”.

As for `CC(c1nc(C(=O)Nc2cnoc2)c(O)c(=O)n1C)C(c1ccccc1Cl)c1nncn1C` (single isomer, unassigned) [Example 152 D1E2], the IC50 at full length human TREX1 and on full length mouse TREX1 was above 10 nM each time. Besides, in experiment [1], the “hTREX1 vs hTREX2 selectivity” value is “A (A = <25 fold selective for hTREX1)”.

On to `CC(c1nc(C(=O)Nc2cnoc2)c(O)c(=O)n1C)C(c1cnn(CC(C)(C)O)c1)c1ccccc1Cl` (single isomer, unassigned) [Example 86 D1E2], for which the values for the IC50 at full length human TREX1 and on full length mouse TREX1 were 1 to 10 nM and above 10 nM, respectively. Also, the “hTREX1 vs hTREX2 selectivity” value in experiment [1] is “A (A = <25 fold selective for hTREX1)”.

In the case of `CC(c1nc(C(=O)Nc2cnoc2)c(O)c(=O)n1C)C(c1ccccc1Cl)c1cn(C)nc1F` (single isomer, unassigned) [Example 130 D1E2], the IC50 on full length human TREX1 and on full length mouse TREX1 was above 10 nM throughout. In experiment [1], the “hTREX1 vs hTREX2 selectivity” value is on record as “A (A = <25 fold selective for hTREX1)”.

On to `CC(c1nc(C(=O)Nc2cnoc2)c(O)c(=O)n1C)C(c1ccccc1C#N)c1nnnn1C` (single isomer, unassigned) [Example 131 D2E1], for which the IC50 on full length human TREX1 and on full length mouse TREX1 was above 10 nM in each case. The “hTREX1 vs hTREX2 selectivity” value in experiment [1] is “C (C = >50 fold selective for hTREX1)”.

In the case of `Cc1cc(C(c2cc(F)ccc2Cl)C(C)c2nc(C(=O)Nc3cnoc3)c(O)c(=O)n2C)n(C)n1` (single isomer, unassigned) [Example 113 D1E2], the IC50 at full length human TREX1 and on full length mouse TREX1 was above 10 nM throughout. In addition, the “hTREX1 vs hTREX2 selectivity” value in experiment [1] was “A (A = <25 fold selective for hTREX1)”.

As to `CC(c1nc(C(=O)Nc2cnoc2)c(O)c(=O)n1C)C(c1cnn(C2COC2)c1)c1ccccc1C#N` (single isomer, unassigned) [Example 106 D1E2], the IC50 at full length human TREX1 and at full length mouse TREX1 was above 10 nM in each case. The “hTREX1 vs hTREX2 selectivity” value in experiment [1] was “A (A = <25 fold selective for hTREX1)”.

`Cc1nn(C)cc1C(c1cc(F)ccc1C#N)C(C)c1nc(C(=O)Nc2cnoc2)c(O)c(=O)n1C` (single isomer, unassigned) [Example 57 D2E1]: the IC50 at full length human TREX1 was 1 to 10 nM; on full length mouse TREX1, above 10 nM. In addition, in experiment [1], the “hTREX1 vs hTREX2 selectivity” value is “C (C = >50 fold selective for hTREX1)”.

Consider `CC(c1nc(C(=O)Nc2cnoc2)c(O)c(=O)n1C)C(c1cnn(CC2COC2)c1)c1ccccc1Cl` (single isomer, unassigned) [Example 88 D2E1], for which the half-maximal inhibitory concentration (IC50) at full length human TREX1 and on full length mouse TREX1 was above 10 nM each time. Further, the “hTREX1 vs hTREX2 selectivity” value in experiment [1] is on record as “A (A = <25 fold selective for hTREX1)”.

With `CCn1cc(C(c2cc(F)ccc2Cl)C(C)c2nc(C(=O)Nc3cnoc3)c(O)c(=O)n2C)cn1` (single isomer, unassigned) [Example 60 D2E1], the half-maximal inhibitory concentration (IC50) at full length human TREX1 and at full length mouse TREX1 was above 10 nM in each case. The “hTREX1 vs hTREX2 selectivity” value in experiment [1] is listed as “A (A = <25 fold selective for hTREX1)”.

In the case of `CC(c1nc(C(=O)Nc2cnoc2)c(O)c(=O)n1C)C(c1ccccc1Cl)c1nncn1C` (single isomer, unassigned) [Example 152 D2E2], the IC50 at full length human TREX1 and on full length mouse TREX1 was above 10 nM throughout. Moreover, the “hTREX1 vs hTREX2 selectivity” value in experiment [1] is given as “A (A = <25 fold selective for hTREX1)”.

`CC(c1nc(C(=O)Nc2cnoc2)c(O)c(=O)n1C)C(c1cnn(CCN2CCN(C(=O)OC(C)(C)C)CC2)c1)c1ccccc1C#N` (single isomer, unassigned) [Example 21 D2E1]: the IC50 on full length human TREX1 and at full length mouse TREX1 was above 10 nM in each case. For the same molecule, the “hTREX1 vs hTREX2 selectivity” value in experiment [1] is on record as “B (B = 25 to 50-fold selective for hTREX1)”.

With `CCn1c(C(C)C(c2cnn(C)c2)c2ccccc2C#N)nc(C(=O)Nc2cnoc2)c(O)c1=O` (single isomer, unassigned) [Example 149 D2E2], the IC50 on full length human TREX1 and at full length mouse TREX1 was above 10 nM throughout. In addition, the “hTREX1 vs hTREX2 selectivity” value in experiment [1] was “B (B = 25 to 50-fold selective for hTREX1)”.
